Assay [1] can be described thus: P. falciparum Dd2 growth inhibitors, dose response, SYBR Green, cherry-picked samples (AID 1159567). The class given is functional, cell-based.
Assay [2] is described as follows: HepG2 cell cytotoxicity, dose response, cytotoxicity control, cherry-picked samples (AID 1159577). The class given is functional, cell-based.
Assay [3] can be described thus: P. falciparum Dd2 growth inhibitors, dose response, SYBR Green, dry powder samples (AID 1159566).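 Note: potency for growth inhibition with lower SYBR green DNA signal.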 The class given is functional, cell-based.
Assay [4] in a line: P. falciparum ATP4 D1247Y mutant growth inhibitors, dose response, NITD609-resistant line, SYBR Green, dry powder (AID 1159571).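 Note: parasites synchronized at ring stage by sorbitol before testing.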 Type of assay: functional, cell-based.
Assay [5] can be described thus: P. falciparum 3D7-ScDHODH growth inhibitors, dose response, SYBR Green, dry powder samples (AID 1159570).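 Note: parasite growth measured after 72 hours of compound exposure.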 Type of assay: functional, cell-based.
A short description of assay [6]: A2780 ovarian cancer cell cytotoxicity, dose response, cytotoxicity control, plate reader, dry powder samples (AID 743046). Type of assay: functional, cell-based.
A further assay concerns the target Paired box protein Pax-8 (Homo sapiens, UniProt Q06710). Kind of assay: inhibitors of PAX8-driven TPO luciferase reporter, dose response, RMG-I cells, cherry-pick (AID 687027).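 Note: luciferase reporter driven by Pax8 target thyroperoxidase promoter measured by SteadyGlo luminescence.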 The class given is functional, cell-based. For orientation: In a reporter assay the amount or activity of a reporter protein is the signal.
Assay [7] is described as follows: ADAM10 inhibitors, peptide cleavage, dose response, biochemical, QFRET (AID 743254).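 Note: ADAM10 enzyme with the DM2 quenched FRET peptide as substrate; EDANS fluorescence gain as the protease cuts the substrate; inhibitor potency against ADAM10 proteolytic activity.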
In assay [8] the target is Disintegrin and metalloproteinase domain-containing protein 17 (Homo sapiens, UniProt P78536). Kind of assay: ADAM17 protease inhibitors, dose response, counter-screen for ADAM10 exosite inhibitor project, biochemical, quenched FRET substrate (AID 743253). Background: The purpose of a counterscreen is to sort out artefacts and off-target activity.
Disintegrin and metalloproteinase domain-containing protein 17, sequence (P78536 whole entry, the tested form may be a part): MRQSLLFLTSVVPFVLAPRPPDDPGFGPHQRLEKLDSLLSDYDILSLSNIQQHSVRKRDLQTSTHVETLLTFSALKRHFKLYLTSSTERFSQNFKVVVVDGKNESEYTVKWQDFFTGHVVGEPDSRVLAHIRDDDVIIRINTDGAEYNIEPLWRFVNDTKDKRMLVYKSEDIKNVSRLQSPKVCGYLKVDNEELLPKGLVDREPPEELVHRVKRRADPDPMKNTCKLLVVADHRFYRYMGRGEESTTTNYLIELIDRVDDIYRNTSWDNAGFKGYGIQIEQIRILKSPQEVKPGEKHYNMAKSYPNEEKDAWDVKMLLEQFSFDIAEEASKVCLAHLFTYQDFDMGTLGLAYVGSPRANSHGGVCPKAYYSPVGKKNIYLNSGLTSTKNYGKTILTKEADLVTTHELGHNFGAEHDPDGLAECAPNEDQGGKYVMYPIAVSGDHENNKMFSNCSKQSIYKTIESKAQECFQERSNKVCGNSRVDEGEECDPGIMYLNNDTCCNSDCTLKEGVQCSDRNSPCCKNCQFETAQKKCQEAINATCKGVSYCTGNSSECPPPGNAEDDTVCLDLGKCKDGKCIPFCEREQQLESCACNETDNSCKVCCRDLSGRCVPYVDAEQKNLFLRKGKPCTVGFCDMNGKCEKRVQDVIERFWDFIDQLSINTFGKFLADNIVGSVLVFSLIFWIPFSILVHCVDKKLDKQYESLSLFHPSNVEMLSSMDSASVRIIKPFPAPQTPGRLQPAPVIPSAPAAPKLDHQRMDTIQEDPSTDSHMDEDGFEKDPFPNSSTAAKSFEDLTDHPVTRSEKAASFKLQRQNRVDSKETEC
A short description of assay [9]: NIH:OVCAR-3 ovarian cancer cell cytotoxicity, dose response, PAX8 inhibitor project, plate reader, dry powder samples (AID 743044). The class given is functional, cell-based.
Assay [10] is described as follows: IGROV1 ovarian cancer cell cytotoxicity, dose response, PAX8 inhibitor project, plate reader, dry powder samples (AID 743043). The class given is functional, cell-based. As to conditions: IGROV-1.
Assay [11] can be described thus: cytotoxicity in OVCAR8 ovarian cancer cells, dose response, PAX8 project, cell-based, plate reader, dry powder samples (AID 743197). The class given is functional. To be noted: OVCAR-8.
The target in a further assay is T1, Caspase-6 (Homo sapiens, UniProt P55212).
T1 sequence (P55212 whole entry): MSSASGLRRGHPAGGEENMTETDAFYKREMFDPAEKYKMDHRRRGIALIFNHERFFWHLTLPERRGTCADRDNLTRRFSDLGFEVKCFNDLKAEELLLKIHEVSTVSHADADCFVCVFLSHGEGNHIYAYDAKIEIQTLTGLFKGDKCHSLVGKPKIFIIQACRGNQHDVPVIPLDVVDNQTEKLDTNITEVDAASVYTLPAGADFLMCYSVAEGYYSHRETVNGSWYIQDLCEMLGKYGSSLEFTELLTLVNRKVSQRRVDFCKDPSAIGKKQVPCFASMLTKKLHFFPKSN
The assay can be described thus: human caspase-6 inhibitors, dose response, biochemical, VEID-R110 fluorescence, cherry-pick (AID 720632).

A further assay concerns the target Prothrombin (Homo sapiens, UniProt P00734). Kind of assay: Thrombin 1536 HTS Dose Response Confirmation. [Related pubchem assays: 1046 (Thrombin 1536 HTS; hits were confirmed in this assay)]. The class given is functional.
In another assay the target is Cytochrome P450 3A4 (Homo sapiens, UniProt P08684).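 Note: CYP3A4 tested as one member of a cytochrome P450 panel screen.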
Cytochrome P450 3A4, sequence (P08684 whole entry): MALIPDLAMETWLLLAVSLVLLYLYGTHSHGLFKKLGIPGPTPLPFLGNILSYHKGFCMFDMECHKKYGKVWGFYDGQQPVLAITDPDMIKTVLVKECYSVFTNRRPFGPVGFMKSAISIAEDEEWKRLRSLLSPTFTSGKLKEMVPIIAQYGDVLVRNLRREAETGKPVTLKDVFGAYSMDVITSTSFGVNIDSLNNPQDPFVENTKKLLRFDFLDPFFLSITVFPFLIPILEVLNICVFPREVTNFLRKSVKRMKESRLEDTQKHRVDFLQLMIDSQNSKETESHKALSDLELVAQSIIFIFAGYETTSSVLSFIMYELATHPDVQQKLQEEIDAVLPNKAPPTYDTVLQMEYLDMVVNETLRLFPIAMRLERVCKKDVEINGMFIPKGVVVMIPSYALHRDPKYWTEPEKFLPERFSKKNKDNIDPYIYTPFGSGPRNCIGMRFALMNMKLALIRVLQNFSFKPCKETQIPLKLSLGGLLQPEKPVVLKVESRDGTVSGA
Assay [12] deals with Mitogen-activated protein kinase 10 (Homo sapiens, UniProt P53779). Kind of assay: Dose response biochemical screening assay for inhibitors of c-Jun N-Terminal Kinase 3 (JNK3). [Related pubchem assays: 746 ].
Mitogen-activated protein kinase 10, sequence (P53779 whole entry): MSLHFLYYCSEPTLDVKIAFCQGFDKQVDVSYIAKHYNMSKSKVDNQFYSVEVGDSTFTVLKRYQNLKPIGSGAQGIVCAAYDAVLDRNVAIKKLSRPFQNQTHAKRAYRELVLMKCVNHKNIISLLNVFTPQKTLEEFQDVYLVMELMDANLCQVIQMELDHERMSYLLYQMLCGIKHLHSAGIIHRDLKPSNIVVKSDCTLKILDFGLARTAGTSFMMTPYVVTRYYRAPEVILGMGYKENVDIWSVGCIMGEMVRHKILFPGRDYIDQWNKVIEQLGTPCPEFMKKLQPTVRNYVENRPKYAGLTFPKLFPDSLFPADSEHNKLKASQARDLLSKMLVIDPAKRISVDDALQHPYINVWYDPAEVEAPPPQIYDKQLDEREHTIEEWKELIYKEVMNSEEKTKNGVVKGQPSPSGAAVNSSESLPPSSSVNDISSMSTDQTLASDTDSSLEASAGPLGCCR
Assay [13] can be described thus: Luminescence Cell-Based Dose Response HTS to Identify Activators of Luciferase Translation or Activity in H4 […] Cells. [Related pubchem assays: 1829 (Project Summary), 1814 (Primary HTS)]. Type of assay: functional.
Assay [14] in a line: Luminescence Cell-Based Dose Confirmation HTS to Identify Activators of 5'UTR Stem-Loop Driven Alpha-Synuclein mRNA Translation in H4 Neuroglioblastoma Cells. [Related pubchem assays: 1829 (Project Summary), 1814 (Primary HTS)]. The class given is functional.
Another assay relates to H4. The assay can be described thus: Luminescence Cell-Based Dose Response HTS to Identify Activators of 5'UTR Stem-Loop Driven Prion Protein mRNA Translation in H4 Neuroglioblastoma Cells. [Related pubchem assays: 1829 (Project Summary), 1814 (Primary HTS)]. The class given is functional. To be noted: Homo sapiens.
Assay [15] is described as follows: Luminescence Cell-Based Dose Response to Identify Activators of 5'UTR Stem-Loop Driven Prion Protein mRNA Translation in H4-C Neuroglioblastoma Cells. [Related pubchem assays: 1829 (Project Summary), 1814 (Primary HTS)]. Type of assay: functional.
A short description of assay [16]: Luminescence Cell-Based Dose Confirmation to Identify Activators of 5'UTR Stem-Loop Driven Alpha-Synuclein mRNA Translation in H4 Neuroglioblastoma Cells. [Related pubchem assays: 1829 (Project Summary), 1814 (Primary HTS)]. The class given is functional.
Assay [17] in a line: Luminescence Cell-Based Dose Response to Identify Activators of Luciferase Translation or Activity in H4-C Neuroglioblastoma Cells. [Related pubchem assays: 1829 (Project Summary), 1814 (Primary HTS)]. Type of assay: functional.

This note sets out measurements from ChEMBL document CHEMBL1201862, “PubChem BioAssay data set” (2004).

Activity calls are given as the source filed them.

Paired box protein Pax-8, sequence (Q06710 whole entry): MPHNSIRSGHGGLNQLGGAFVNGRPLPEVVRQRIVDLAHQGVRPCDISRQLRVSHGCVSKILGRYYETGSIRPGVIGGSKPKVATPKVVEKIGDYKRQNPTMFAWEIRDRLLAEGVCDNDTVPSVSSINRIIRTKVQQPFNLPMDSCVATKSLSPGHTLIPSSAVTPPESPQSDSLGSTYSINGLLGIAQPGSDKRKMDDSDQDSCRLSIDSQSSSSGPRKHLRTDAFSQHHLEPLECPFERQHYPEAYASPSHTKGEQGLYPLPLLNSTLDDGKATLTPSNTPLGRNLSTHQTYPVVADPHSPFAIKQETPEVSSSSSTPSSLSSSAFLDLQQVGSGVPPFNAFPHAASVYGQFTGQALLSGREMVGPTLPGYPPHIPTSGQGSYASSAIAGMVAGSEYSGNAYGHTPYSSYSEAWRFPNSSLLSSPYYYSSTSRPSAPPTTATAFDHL

`C[C@@H]1CN([C@H](C)CO)C(=O)c2c(c3ccccc3n2C)-c2ccccc2CO[C@H]1CN(C)Cc1ccc(Cl)c(Cl)c1`: the AC50 (commonly the concentration at which the activity in the assay is half-maximal) in assay [1] was 3.7 µM (active); in assay [2], 30 µM (active).
With `CC(C)CNC[C@@H]1[C@@H](c2ccccc2)[C@@H](CO)N1Cc1ccc(F)cc1`, the AC50 in [3] is 0.409 µM (active); in assay [1], 1.33 µM (active); in [4], 0.727 µM (active); in assay [5] it was 3.03 µM (active).
For the compound `C[C@H]1CN([C@@H](C)CO)C(=O)c2cc(NS(=O)(=O)c3ccccc3)ccc2O[C@@H]1CN(C)Cc1ccc(Oc2ccccc2)cc1`, the AC50 in [6] was 8.52 µM (active); on Paired box protein Pax-8, 15.7 µM (active).
Consider `Cc1ccc2c(c1)NC(=O)[C@@]1(C)[C@@H](c3ccccc3)[C@H]3COc4ccccc4[C@@H]3N1C2=O`, for which the IC50 in [7] and in [8] was > 69.5 µM (inactive) throughout.
With `C[C@@H]1CCCCO[C@H](CN(C)Cc2ccc(C(F)(F)F)cc2)[C@H](C)CN([C@H](C)CO)C(=O)c2cc(NC(=O)Cc3ccccc3)ccc2O1`, the AC50 in assay [9] is 26.8 µM (active); in assay [10], 43.9 µM (active); in assay [11] it was 34.7 µM (active); at Paired box protein Pax-8 it was 6.16 µM (active).
For the compound `CC(=O)Nc1cccc2cc(S(=O)(=O)O)ccc12`, the AC50 on Caspase-6 was 15.6 µM (active).
Consider `COC(=O)CSc1nnc(-c2ccccc2OC)n1-c1ccc(C)cc1`, for which, on Prothrombin, the IC50 (usually the midpoint of a concentration-inhibition curve) was > 50 µM (not active). For the same compound, the concentration at half-maximal activity (AC50) at Cytochrome P450 3A4 was 15.8 µM (inconclusive).
Take `O=C(NC=NOCc1ccc(Cl)cc1Cl)NOCc1ncc(C(F)(F)F)cc1Cl`: in assay [8], the IC50 was > 69.5 µM (inactive).
`COc1cccc(S(=O)(=O)Nc2ccc3c(c2)[C@@H]2C[C@H](CC(=O)NCc4cccc(F)c4)O[C@@H](CO)[C@@H]2O3)c1`: the AC50 in assay [1] is 6.43 µM (active); in assay [2], 22.7 µM (active).
With `Cc1ccc(-n2c(SCC(=O)Nc3cccc(S(N)(=O)=O)c3)nc3ccccc32)cc1`, the IC50 in assay [7] and in assay [8] was > 69.5 µM (inactive) in each case.
In the case of `O=C(C1CCCCC1)N1CC(=O)N2[C@H](C1)[C@@H](c1ccc(C#Cc3cccc(F)c3)cc1)[C@@H]2CO`, the AC50 was 4.26 µM (active) in [1] and > 39 µM (inactive) in assay [2].
`COc1ccc(OC)c(C(=O)c2coc3ccc(O)cc23)c1`: the IC50 in assay [12] was > 93.1 µM (not active).
Turning to `COc1ccc(NC(=O)n2nc(OC(=O)c3cccs3)cc2N)cc1`, the IC50 at Prothrombin is 12.7 µM (active). The EC50 (in general, the midpoint of the concentration-response curve) in assay [13] was 12.1 µM (active); in assay [14], > 60 µM (not active); with H4, 28.1 µM (active).
For the compound `COC(=O)c1n[nH]c(NC(=O)c2ccccc2Br)n1`, the IC50 at Prothrombin is 0.082 µM (active).
As to `CC(C)C[C@H](NC(=O)c1nc[nH]c1C(=O)NC(c1ccccc1)c1ccccc1)C(=O)OCc1ccccc1`, in assay [8], the IC50 is > 69.5 µM (inactive).
Take `Cc1ccc(C)n1-c1sc2c(c1C(=O)O)CCCC2`: the AC50 at Caspase-6 is 6.02 µM (active).
Turning to `COc1ccc2c3c(n(C)c2c1)[C@H](CO)N(CC1CCCCC1)CC31CCN(Cc2nccs2)CC1`, the AC50 is 1.62 µM (active) in assay [3], 1.94 µM (active) in assay [1], 1.52 µM (active) in assay [4] and 1.26 µM (active) in [5].
Regarding `O=C1c2ccccc2C(=O)c2c([N+](=O)[O-])ccc(O)c21`, the AC50 on Caspase-6 is 9.76 µM (active).
`O=C(CCCCCn1c(SCC(=O)c2ccccc2)nc2ccccc2c1=O)NCc1ccco1`: the half-inhibitory concentration (IC50) in assay [12] is listed as 38.9 µM (not active).
For `C[C@@H]1CCCCO[C@@H](CN(C)C(=O)NC2CCCCC2)[C@H](C)CN([C@@H](C)CO)C(=O)c2cc(NC(=O)Nc3ccc(C(F)(F)F)cc3)ccc2O1`, the AC50 in assay [9] was 38 µM (active); in [6], 5.99 µM (active); in assay [11], 47.1 µM (active); on Paired box protein Pax-8, 3.5 µM (active).
`Nc1nnc(CC(=O)N/N=C/c2cccc(OCCOc3ccccc3)c2)s1`: the EC50 in [13] is < 0.1 µM (active); in [15] it was 1.25 µM (active); in [16] it was 0.38 µM (active); in [17] it was 0.88 µM (active); in the assay with H4 it was 21.8 µM (active).
